In the supplement of paper PMC10307832:

Experiments:
Test in all cases: relative viability (nuclei count vs DMSO), 5 days (fraction); higher = more cells survive
XMD14-99 + Crizotinib = compound: CN1CCN(CC1)C2=CC(=C(C=C2)NC3=NC(=C(S3)C(=O)C4=C(C=CC=C4Cl)Cl)N)OC [XMD14-99] + C[C@@H](Oc1cc(-c2cnn(C3CCNCC3)c2)cnc1N)c1c(Cl)ccc(F)c1Cl [Crizotinib] (partner 1 µM)
In short: (§1)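 Relative viability was taken as the ratio of nuclei in treated wells to nuclei in vehicle wells. Lung cancer cell lines in 1536-well plates received compounds by pin tool one day after seeding, either one drug alone or a fixed anchor-drug dose plus five library-drug doses (not always all listed) in √10 steps. Nuclei were counted on 4× images after 5 days of treatment, and values are medians of duplicate plates.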

XMD14-99 + Linsitinib = compound: CN1CCN(CC1)C2=CC(=C(C=C2)NC3=NC(=C(S3)C(=O)C4=C(C=CC=C4Cl)Cl)N)OC [XMD14-99] + C[C@]1(O)C[C@@H](c2nc(-c3ccc4ccc(-c5ccccc5)nc4c3)c3c(N)nccn32)C1 [Linsitinib] (partner 1 µM)
In short: as §1

XMD14-99 + Pictilisib = compound: CN1CCN(CC1)C2=CC(=C(C=C2)NC3=NC(=C(S3)C(=O)C4=C(C=CC=C4Cl)Cl)N)OC [XMD14-99] + CS(=O)(=O)N1CCN(Cc2cc3nc(-c4cccc5[nH]ncc45)nc(N4CCOCC4)c3s2)CC1 [Pictilisib] (partner 1 µM)
In short: as §1

XMD14-99 + Tozasertib = compound: CN1CCN(CC1)C2=CC(=C(C=C2)NC3=NC(=C(S3)C(=O)C4=C(C=CC=C4Cl)Cl)N)OC [XMD14-99] + Cc1cc(Nc2cc(N3CCN(C)CC3)nc(Sc3ccc(NC(=O)C4CC4)cc3)n2)n[nH]1 [Tozasertib] (partner 0.1 µM)
In short: as §1

XMD14-99 + OSI-027 = compound: CN1CCN(CC1)C2=CC(=C(C=C2)NC3=NC(=C(S3)C(=O)C4=C(C=CC=C4Cl)Cl)N)OC [XMD14-99] + COc1cccc2cc(-c3nc([C@H]4CC[C@H](C(=O)O)CC4)n4ncnc(N)c34)[nH]c12 [OSI-027] (partner 0.5 µM)
In short: as §1

Cell Line | relative viability (XMD14-99 + Crizotinib; first compound 0.08 µM) | relative viability (XMD14-99 + Crizotinib; first compound 0.8 µM) | relative viability (XMD14-99 + Crizotinib; first compound 2.53 µM) | relative viability (XMD14-99 + Crizotinib; first compound 8 µM) | relative viability (XMD14-99 + Linsitinib; first compound 0.08 µM) | relative viability (XMD14-99 + Linsitinib; first compound 0.8 µM) | relative viability (XMD14-99 + Linsitinib; first compound 2.53 µM) | relative viability (XMD14-99 + Linsitinib; first compound 8 µM) | relative viability (XMD14-99 + Pictilisib; first compound 0.08 µM) | relative viability (XMD14-99 + Pictilisib; first compound 0.8 µM) | relative viability (XMD14-99 + Pictilisib; first compound 2.53 µM) | relative viability (XMD14-99 + Pictilisib; first compound 8 µM) | relative viability (XMD14-99 + Tozasertib; first compound 0.08 µM) | relative viability (XMD14-99 + Tozasertib; first compound 0.8 µM) | relative viability (XMD14-99 + Tozasertib; first compound 2.53 µM) | relative viability (XMD14-99 + Tozasertib; first compound 8 µM) | relative viability (XMD14-99 + OSI-027; first compound 0.08 µM) | relative viability (XMD14-99 + OSI-027; first compound 0.8 µM) | relative viability (XMD14-99 + OSI-027; first compound 2.53 µM) | relative viability (XMD14-99 + OSI-027; first compound 8 µM)
LCLC-97TM1 | 0.397 | 0.364 | 0.303 | 0.222 | 0.162 | 0.157 | 0.141 | 0.176 | 0.165 | 0.217 | 0.17 | 0.172 | 0.401 | 0.238 | 0.202 | 0.211 | 0.412 | 0.452 | 0.555 | 0.442
LCLC-103H | 0.986 | 1.02 | 1.01 | 0.989 | 0.909 | 1.13 | 1 | 0.973 | 0.58 | 0.731 | 0.558 | 0.454 | 0.494 | 0.487 | 0.465 | 0.44 | 0.409 | 0.417 | 0.465 | 0.406
LK-2 | 0.232 | 0.193 | 0.2 | 0.223 | 0.398 | 0.369 | 0.659 | 0.471 | 0.592 | 0.506 | 0.517 | 0.465 | 0.171 | 0.185 | 0.171 | 0.192 | 0.19 | 0.182 | 0.162 | 0.179
LOU-NH91 | 0.789 | 0.743 | 0.717 | 0.698 | 0.963 | 1 | 0.924 | 0.865 | 0.586 | 0.614 | 0.516 | 0.545 | 0.709 | 0.631 | 0.645 | 0.533 | 0.744 | 0.7 | 0.73 | 0.63
LU99A | 0.612 | 0.489 | 0.542 | 0.468 | 0.511 | 0.396 | 0.488 | 0.425 | 0.257 | 0.304 | 0.267 | 0.262 | 0.294 | 0.236 | 0.212 | 0.196 | 0.302 | 0.308 | 0.297 | 0.25
LXF-289 | 0.814 | 0.802 | 0.814 | 0.712 | 0.894 | 0.926 | 0.939 | 0.798 | 0.699 | 0.824 | 0.753 | 0.597 | 0.183 | 0.205 | 0.196 | 0.171 | 0.839 | 0.84 | 0.819 | 0.616
NCI-H23 | 0.45 | 0.447 | 0.461 | 0.351 | 0.516 | 0.617 | 0.59 | 0.527 | 0.46 | 0.547 | 0.526 | 0.383 | 0.453 | 0.352 | 0.279 | 0.263 | 0.699 | 0.616 | 0.615 | 0.496
NCI-H322M | 0.927 | 0.972 | 0.905 | 0.848 | 0.903 | 0.959 | 0.951 | 0.845 | 0.514 | 0.538 | 0.495 | 0.476 | 0.501 | 0.488 | 0.558 | 0.414 | 0.56 | 0.581 | 0.492 | 0.372
NCI-H358 | 0.661 | 0.733 | 0.576 | 0.302 | 0.703 | 0.673 | 0.557 | 0.29 | 0.327 | 0.301 | 0.229 | 0.176 | 0.0889 | 0.102 | 0.0882 | 0.0609 | 0.702 | 0.813 | 0.707 | 0.404
NCI-H441 | 0.596 | 0.797 | 0.661 | 0.494 | 0.719 | 0.52 | 0.528 | 0.382 | 0.451 | 0.442 | 0.51 | 0.283 | 0.693 | 0.599 | 0.554 | 0.354 | 0.61 | 0.568 | 0.665 | 0.427
NCI-H460 | 0.876 | 0.888 | 0.955 | 0.667 | 0.685 | 0.77 | 0.61 | 0.331 | 0.335 | 0.378 | 0.345 | 0.254 | 0.408 | 0.376 | 0.45 | 0.188 | 0.626 | 0.626 | 0.646 | 0.269
NCI-H520 | 0.734 | 0.694 | 0.724 | 0.648 | 1.08 | 0.972 | 1 | 0.657 | 0.254 | 0.266 | 0.277 | 0.266 | 0.432 | 0.438 | 0.363 | 0.338 | 0.251 | 0.262 | 0.231 | 0.206
NCI-H596 | 1.01 | 0.974 | 1.04 | 1.02 | 1.06 | 1.05 | 1.08 | 1.04 | 0.399 | 0.413 | 0.35 | 0.396 | 0.881 | 0.839 | 0.892 | 0.803 | 0.675 | 0.901 | 0.609 | 0.643
NCI-H647 | 0.948 | 0.928 | 1.01 | 0.741 | 1.25 | 1.12 | 1.27 | 0.929 | 0.421 | 0.412 | 0.472 | 0.379 | 0.203 | 0.375 | 0.218 | 0.114 | 0.621 | 0.71 | 0.746 | 0.605
NCI-H650 | 0.613 | 0.728 | 0.684 | 0.623 | 1.08 | 0.906 | 0.77 | 0.675 | 0.931 | 0.992 | 0.805 | 0.72 | 0.747 | 0.688 | 0.667 | 0.581 | 0.544 | 0.58 | 0.464 | 0.42
